Columns and labels:
Type in all cases: in vivo, human
[1] = test system: patients who either failed to ovulate or ovulated with an endometrial thickness <5 mm in response to CC; assay: Letrozole cycles vs CC cycles in patients with inadequate response to CC (Example 2)
Description: HCG 10,000 IU was given to trigger ovulation. CC was given in a dose of 50-100 mg on days 3-7 or 5-9.

[2] = test system: infertile patients (3 with PCOS and 4 with unexplained infertility); assay: Letrozole alone in a single dose, ovarian stimulation and cycle monitoring for IUI (Example 3)
Description: The estradiol levels in 9 treatment cycles in 7 infertile patients (3 with PCOS and 4 with unexplained infertility) undergoing ovarian stimulation and cycle monitoring for IUI who received a single 20 mg dose of letrozole on day 3 of the cycle. Follicle development was monitored by transvaginal ultrasound and by serum levels of estradiol and LH.

[3] = test system: PCOS and unexplained infertility undergoing IUI; assay: Letrozole for Ovulation Induction: Summary (Example 5)
Source text: Patient Group: PCOS and unexplained infertility undergoing IUI.
Results: Pregnancy rate was higher with Letrozole VS CC in both kinds of regimen, ovulation rate was higher with Letrozole VS CC in PCOS patients (not reported for unexplained fertility), endometrial thickness was better with Letrozole.

[4] = mean, single 20 mg dose on day 3
[5] = mean, single 20 mg dose on day 3, listed as letrozole
[6] = single 20 mg dose on day 3, spread in brackets

CCN(CC)CCOc1ccc(C(=C(Cl)c2ccccc2)c2ccccc2)cc1.O=C(O)CC(O)(CC(=O)O)C(=O)O [CC]
Day of hCG administration, Mean ([1]; Mean): 12.6 | Endometrial Thickness (Cm.), Mean ([1]; Mean): 0.5 Cm. | Estradiol (pmol/L) on day of hCG administration, Mean ([1]; Mean): 2145 pmol/L | Estradiol per mature follicle (pmol/L), Mean ([1]; Mean): 1278 pmol/L | Follicles > 1.5 Cm on day of hCG administration, Mean ([1]; Mean): 1.9 | LH on day of hCG administration (IU/L), Mean ([1]; Mean): 16 IU/L | Number of Days from last letrozole tablet to hCG day, Mean ([1]; Mean): 4.4 | Day of hCG administration, Median ([1]; Median): 12 | Endometrial Thickness (Cm.), Median ([1]; Median): 0.4 Cm. | Estradiol (pmol/L) on day of hCG administration, Median ([1]; Median): 1668 pmol/L | Estradiol per mature follicle (pmol/L), Median ([1]; Median): 1486 pmol/L | Follicles > 1.5 Cm on day of hCG administration, Median ([1]; Median): 2 | LH on day of hCG administration (IU/L), Median ([1]; Median): 8 IU/L | Number of Days from last letrozole tablet to hCG day, Median ([1]; Median): 4 | Day of hCG administration, Range ([1]; Range): 11-16 | Endometrial Thickness (Cm.), Range ([1]; Range): 0.4-0.8 Cm. | Estradiol (pmol/L) on day of hCG administration, Range ([1]; Range): 362 to 5210 pmol/L | Estradiol per mature follicle (pmol/L), Range ([1]; Range): 177 to 2404 pmol/L | Follicles > 1.5 Cm on day of hCG administration, Range ([1]; Range): 1-5 | LH on day of hCG administration (IU/L), Range ([1]; Range): 3-66 IU/L | Number of Days from last letrozole tablet to hCG day, Range ([1]; Range): 2-7

N#Cc1ccc(C(c2ccc(C#N)cc2)n2cncn2)cc1 [Letrozole, letrozole]
Pregnancy was achieved (patients) ([2]; 7 patients, 9 treatment cycles, single 20 mg dose): one | Estradiol on hCG day (pmol/L) [2, 4]: 831 (359) pmol/L | Estradiol/mature follicle (pmol/L) [2, 4]: 390 (74) pmol/L | Estradiol on hCG day [2, 5]: 831 pmol/L | Estradiol/mature follicle [2, 5]: 390 pmol/L | Endometrial thickness on hCG day (cm) [2, 6]: 0.9 (0.11) cm | Follicles > 1.5 cm [2, 6]: 2.29 (1.3) | LH (IU/L) [2, 6]: 19.1 (12.7) IU/L | ovulation rate ([3]; Letrozole VS CC in PCOS patients): higher | Pregnancy rate ([3]; Letrozole VS CC in both kinds of regimen (alone in PCOS; plus FSH in unexplained infertility)): higher | endometrial thickness ([3]; Letrozole vs CC): better

Source: US7846957B2, “Aromatase inhibition to enhance assisted reproduction” (Ares Trading S.A., priority 2001, dated 2010)
